Measurements published in US20250100996A1, “HETEROCYCLOALKYL AND HETEROARYL COMPOUNDS AND PHARMACEUTICAL COMPOSITIONS THAT MODULATE IKZF2” (Plexium, Inc., priority 2021, published 2025).

Legend:
[1] = target: T1, human E3 ligase component cereblon (CRBN) (Homo sapiens, UniProt Q96SW2); test: Cereblon (CRBN) target engagement, NanoBRET TE Intracellular E3 Ligase Assay in transfected HEK-293T cells; conditions: read-out: CRBN Binding EC50
T1 construct: host or cells: HEK293T
Method: HEK293T cells were harvested ca. 75% confluent with trypsin and plated (500,000 cells/well) in a 6-well tissue culture plate in 2 mL of Dulbecco's Modified Eagle Medium (DMEM)^+10% Fetal Bovine Serum (FBS) and incubated overnight at 37° C.
The NanoLuc-CRBN fusion vector (Nluc-CRBN; Promega) contains the coding region of human E3 ligase component cereblon (CRBN) fused to the C-terminus of the NanoLuc luciferase coding region. A mixture of 10 ng Nluc-CRBN and 990 ng DDB1 Expression Vector (Promega) was added to 125 μL Opti-Minimum Essential Medium (Opti-MEM™; Thermo Fisher) along with […] P3000 reagent (Thermo Fisher) in a 1.5 mL epppendorf tube. This solution was added to Lipofectamine 3000 transfection reagent (5 μL; Thermo Fisher) in Opti-MEM (125 μL), mixed well, and incubated for 15 minutes at room temperature. The transfection mixture was added dropwise to cells and incubated overnight at 37° C., 5% CO2. Following transfection, cells were washed once with PBS, and trypsin (250 μL) was added and incubated 30-45 see to dislodge cells. Complete media (2 mL) was added to resuspend cells to form a single cell suspension. Cells were centrifuged at 320×g for 5 min at room temperature, the supernatant was removed, and the cell pellet resuspended in Opti-MEM (3 mL; wash step repeated ×2). After final resuspension in 5 mL Opti-MEM, cells were counted and resuspended at 200,000 cells/mL in Opti-MEM.
Cereblon target engagement was monitored by Bioluminescence Resonance Energy Transfer (BRET) in transfected HEK-293T cells using the NanoBRET TE Intracellular E3 Ligase Assay (Promega). Briefly, 384-well plates (white opaque plates, Corning 3574, low binding surface) were seeded with transfected HEK-293T cells (38 μL/well). 2 μL of 10 μM CRBN tracer (diluted 1:5 in Tracer Dilution Buffer) was added to each well. Plates were centrifuged at 320×g for 1 min at room temperature. Test compounds were added in a 11-point dilution series (typically 10 μM to 100 pM) using a TECAN D300e Digital Dispenser. Plates were shaken for 2 minutes on a microplate shaker to mix compounds. Plates were centrifuged at 320×g for 1 min at room temperature, and subsequently incubated for 2 hours at 37° C.
After incubation, plates were allowed to cool to room temperature for 15 minutes. 20 μL of 3× Complete NanoBRET™ Nano-Glo® Substrate plus Inhibitor Solution (Promega, 1:166 Substrate and 1:500 dilution of Extracellular NanoLuc® Inhibitor diluted in Opti-MEM) were added to each well. Plates were incubated with shaking at room temperature for 3 minutes covered with foil. Plates were read on a CLARIOstar microplate reader (BMG LabTech), measuring at 450 nm (donor emission) and 610 nm (acceptor emission). The IC50 values were determined by regression to best fit four-parameter logistic curves using GraphPad Prism.

[2] = target: T2, IKZF2 (Helios) (Homo sapiens, UniProt Q96SW2+Q9UKS7); test: IKZF2 reporter degradation assay (HEK 293T IKZF2-mNeonGreen reporter cell line); assay type: cell-based; conditions: @ 1 μM, HEK 293T IKZF2-mNeonGreen reporter, 24 hours incubation; for inhibition at 1 µM: HEK-293T, 24 h
T2 construct: Leu-Asp junction (codons ctcgac before the linker); mScarlet (behind P2A) (C, cleaved yes); expressed in transfected cells
Text: (§1) Polycistronic plasmids were constructed for the mammalian expression of fluorescent reporter fusions of human transcription factors IKZF1 (Ikaros), IKZF2 (Helios), and IKZF3 (Aiolos). The respective protein sequences had their C-terminal end joined to a GGGGS linker repeated three times followed by mNeonGreen, P2A sequence, and mScarlet. The DNA sequences of the open reading frames are as follows:
(§2) IKZF1, IKZF2, and IKZF3 constructs were cloned into the UCOE Hygromycin expression vectors (Millipore Sigma). Reporter constructs were transfected using cationic lipid reagents into adherent HEK 293T cells and stable integrants were selected by treatment with 200 μg/mL hygromycin B. Clonal populations were obtained from the population of stable integrants either by limiting dilution or fluorescence activated cell sorting.
(§3) The clonal stable cell lines were maintained under constant 200 μg/mL hygromycin B selection while being passaged for use in the degradation assays. […] The fluorescence intensity of the IKZF1/2/3-mNeonGreen (FITC channel) and mScarlet (PE channel) reporters were routinely analyzed by flow cytometry to confirm consistent expression levels between experiments.
(§4) The IKZF1/IKZF2/IKZF3 degradation assays were carried out by harvesting the HEK 293T reporter cell lines and resuspending the cells in media formulated for reduced background fluorescence (FluoroBrite; Thermo Fisher). The respective cell lines were seeded at a density of 4000 cells/well into black-walled 384-well optical grade assay tissue culture plates. The cells were incubated overnight at 37° C. to allow for attachment to the assay plate. Dilutions of the compounds were prepared in DMSO from 10 mM compound stocks. The assay plates were treated with appropriate concentrations of the compounds by dispensing the DMSO dilutions in quadruplicate wells with an upper limit of 0.5% final DMSO.
(§5) After 24 hours incubation with the compounds, the assay plates were imaged on an ImageXpress Pico microscopy system (cells maintained at 37° C. during imaging) to obtain the fluorescent readouts. The assay plates were imaged in the FITC and Tetramethylrhodamine (TRITC) channels to obtain the mNeonGreen fluorescence intensity (reporter degradation data) and mScarlet fluorescence intensity (for cell segmentation). 293T-IKZF1 and 293T-IKZF3 reporter cell lines were imaged with exposures of 500 milliseconds (ms) for both FITC and TRITC channels, while the 293T-IKZF2 reporter cell line was imaged with exposures of 1000 ms for FITC and 1250 ms for TRITC. The resulting data was analyzed with Cell Reporter Xpress software using the 2-channel cell scoring analysis with a “percent positive” readout. The TRITC channel was selected for the “nuclei” segmentation with a threshold of 20 while the FITC channel was selected for the “Marker 1” segmentation and a threshold of 100 for the IKZF1 and IKZF3 reporter lines. […] The minimum segmentation width was set to 6 micrometers and the maximum segmentation width was set to 15 micrometers for all cell lines. The DC50 calculations were determined by regression to best fit four-parameter logistic curves using GraphPad Prism.

[3] = target: T3, IKZF2 (Helios) (Homo sapiens, UniProt Q9UKS7); test: as above; assay type: cell-based; conditions: HEK 293T IKZF2-mNeonGreen reporter, 24 hours incubation
T3 construct: Leu-Asp junction (codons ctcgac before the linker); mScarlet (behind P2A) (C, cleaved yes); expressed in transfected cells
Text: as §1, §2, §3, §4, §5

[4] = target: T4, IKZF3 (Aiolos) (Homo sapiens, UniProt Q9UKT9); test: IKZF3 reporter degradation assay (HEK 293T IKZF3-mNeonGreen reporter cell line); assay type: cell-based; conditions: HEK 293T IKZF3-mNeonGreen reporter, 24 hours incubation
T4 construct: Leu-Asp junction (codons ctcgac before the linker); mScarlet (behind P2A) (C, cleaved yes); expressed in transfected cells
Text: as §1, §2, §3, §4, §5

T3 sequence (Q9UKS7 whole entry): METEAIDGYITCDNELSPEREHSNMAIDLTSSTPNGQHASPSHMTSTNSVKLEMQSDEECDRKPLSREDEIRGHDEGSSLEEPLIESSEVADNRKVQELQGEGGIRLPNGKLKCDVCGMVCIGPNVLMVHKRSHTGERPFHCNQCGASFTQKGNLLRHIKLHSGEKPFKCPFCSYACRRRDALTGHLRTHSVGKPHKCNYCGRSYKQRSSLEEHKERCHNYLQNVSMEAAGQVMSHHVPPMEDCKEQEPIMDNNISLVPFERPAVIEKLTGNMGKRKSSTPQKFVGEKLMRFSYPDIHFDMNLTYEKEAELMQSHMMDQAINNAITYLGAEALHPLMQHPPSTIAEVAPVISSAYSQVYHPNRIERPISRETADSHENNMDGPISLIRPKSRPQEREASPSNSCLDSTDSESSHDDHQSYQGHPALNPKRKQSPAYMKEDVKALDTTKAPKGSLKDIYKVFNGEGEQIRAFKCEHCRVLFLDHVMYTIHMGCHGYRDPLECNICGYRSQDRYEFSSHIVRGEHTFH
T3 sequence (Q96SW2 whole entry, further chain): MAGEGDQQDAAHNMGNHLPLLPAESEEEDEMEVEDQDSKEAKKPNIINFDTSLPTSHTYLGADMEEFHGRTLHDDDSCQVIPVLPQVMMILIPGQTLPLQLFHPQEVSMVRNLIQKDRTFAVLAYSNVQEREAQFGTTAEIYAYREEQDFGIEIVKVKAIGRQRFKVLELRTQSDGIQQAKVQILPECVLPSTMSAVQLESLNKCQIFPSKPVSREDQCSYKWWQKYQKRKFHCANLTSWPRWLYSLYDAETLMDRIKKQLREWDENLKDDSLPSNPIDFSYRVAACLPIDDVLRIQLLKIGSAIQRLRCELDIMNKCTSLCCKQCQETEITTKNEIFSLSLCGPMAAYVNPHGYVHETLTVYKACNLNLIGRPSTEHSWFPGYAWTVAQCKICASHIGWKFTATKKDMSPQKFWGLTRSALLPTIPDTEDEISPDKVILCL
T3 sequence (Q16531 whole entry partner): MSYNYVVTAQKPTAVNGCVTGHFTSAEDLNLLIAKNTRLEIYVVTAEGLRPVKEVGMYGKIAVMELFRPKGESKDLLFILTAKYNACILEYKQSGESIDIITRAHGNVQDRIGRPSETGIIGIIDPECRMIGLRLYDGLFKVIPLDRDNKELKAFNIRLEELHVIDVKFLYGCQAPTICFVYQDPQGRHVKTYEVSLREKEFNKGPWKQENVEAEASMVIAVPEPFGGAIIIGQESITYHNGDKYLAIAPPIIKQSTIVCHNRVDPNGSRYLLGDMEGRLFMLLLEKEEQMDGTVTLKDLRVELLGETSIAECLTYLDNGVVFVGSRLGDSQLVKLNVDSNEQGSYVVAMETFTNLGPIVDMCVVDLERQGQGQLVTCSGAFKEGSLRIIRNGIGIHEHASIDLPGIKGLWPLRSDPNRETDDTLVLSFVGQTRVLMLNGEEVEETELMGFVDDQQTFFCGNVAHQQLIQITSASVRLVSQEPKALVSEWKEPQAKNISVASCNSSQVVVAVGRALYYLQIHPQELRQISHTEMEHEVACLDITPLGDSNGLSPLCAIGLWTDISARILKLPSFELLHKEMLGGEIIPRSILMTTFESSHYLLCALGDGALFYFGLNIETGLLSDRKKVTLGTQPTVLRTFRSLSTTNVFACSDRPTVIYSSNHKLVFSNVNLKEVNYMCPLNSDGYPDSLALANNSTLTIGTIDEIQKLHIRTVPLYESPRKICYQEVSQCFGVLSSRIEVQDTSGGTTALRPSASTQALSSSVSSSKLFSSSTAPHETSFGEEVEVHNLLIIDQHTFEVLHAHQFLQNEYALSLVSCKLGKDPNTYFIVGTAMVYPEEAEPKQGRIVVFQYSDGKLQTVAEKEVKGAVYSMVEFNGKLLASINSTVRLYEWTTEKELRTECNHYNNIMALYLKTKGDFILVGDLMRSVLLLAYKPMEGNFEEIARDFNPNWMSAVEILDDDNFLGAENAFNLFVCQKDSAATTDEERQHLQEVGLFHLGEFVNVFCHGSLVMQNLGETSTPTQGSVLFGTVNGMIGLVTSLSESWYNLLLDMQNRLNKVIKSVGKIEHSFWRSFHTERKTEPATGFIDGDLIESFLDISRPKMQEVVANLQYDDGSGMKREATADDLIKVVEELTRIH
T2 sequence (Q9UKS7 whole entry): as the sequence (Q9UKS7 whole entry) above
T2 sequence (Q96SW2 whole entry): as the sequence (Q96SW2 whole entry, further chain) above
T2 sequence (Q16531 whole entry partner): as the sequence (Q16531 whole entry partner) above
T4 sequence (Q96SW2 whole entry partner): as the sequence (Q96SW2 whole entry, further chain) above
T4 sequence (Q16531 whole entry partner): as the sequence (Q16531 whole entry partner) above
T4 sequence (Q9UKT9 whole entry): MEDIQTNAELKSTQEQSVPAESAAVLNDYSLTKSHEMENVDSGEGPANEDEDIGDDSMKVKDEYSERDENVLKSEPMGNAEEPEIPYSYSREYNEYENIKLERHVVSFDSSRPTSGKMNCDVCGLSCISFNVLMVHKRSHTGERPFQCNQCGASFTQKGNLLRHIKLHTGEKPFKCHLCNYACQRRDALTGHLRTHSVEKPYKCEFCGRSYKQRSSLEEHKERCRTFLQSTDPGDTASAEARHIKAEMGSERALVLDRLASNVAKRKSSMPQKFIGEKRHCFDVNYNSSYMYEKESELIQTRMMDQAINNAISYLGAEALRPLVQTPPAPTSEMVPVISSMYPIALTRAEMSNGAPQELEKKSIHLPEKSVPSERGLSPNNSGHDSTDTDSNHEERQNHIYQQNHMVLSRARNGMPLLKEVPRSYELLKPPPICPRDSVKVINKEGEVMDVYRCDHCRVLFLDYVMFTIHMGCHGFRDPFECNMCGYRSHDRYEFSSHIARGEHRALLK
T1 sequence (Q96SW2 whole entry): as the sequence (Q96SW2 whole entry, further chain) above
T1 sequence (Q16531 whole entry partner): as the sequence (Q16531 whole entry partner) above

Compound	EC50 [1] [nM]	inhibition at 1 µM [2] [%]	DC50 [3] [nM]	DC50 [4] [nM]	IKZF2 % Degradation @ 1 μM [2] [%]	IKZF3 % Degradation @ 1 μM ([4]; @ 1 μM) [%]	inhibition at 1 µM ([4]; HEK-293T, 24 h, @ 1 μM) [%]
O=C1CCC(N2Cc3cc(O[C@H]4CCCC[C@@H]4N4CC(C5CCN(C6CCC6)CC5)C4)ccc3C2=O)C(=O)N1 (stereo partly drawn) [Compound 56-A, 3-(5-(((1S,2S)-2-(3-(1-cyclobutylpiperidin-4-yl)azetidin-1-yl)cyclohexyl)oxy)-1-oxoisoindolin-2-yl)piperidine-2,6-dione]	50	60.8	30	> 30000			
O=C1CCC(N2Cc3cc(O[C@H]4CCCC[C@@H]4N4CC(c5ncc(C(F)(F)F)cn5)C4)ccc3C2=O)C(=O)N1 (single isomer, unassigned) [Compound 120-B]	5	69.9	4	> 30000			
CC(=O)N1CCC(C2CN([C@H]3CCCC[C@@H]3Oc3ccc4c(c3)CN(C3CCC(=O)NC3=O)C4=O)C2)CC1 (stereo partly drawn) [Compound 12-A, 3-(5-(((1S,2S)-2-(3-(1-acetylpiperidin-4-yl)azetidin-1-yl)cyclohexyl)oxy)-1-oxoisoindolin-2-yl)piperidine-2,6-dione]	52	83.1	12	> 30000			
O=C1CCC(N2Cc3cc(O[C@H]4CCCC[C@@H]4N4CC(c5ncc(Br)cn5)C4)ccc3C2=O)C(=O)N1 (single isomer, unassigned) [Compound 108-B]	6	74.6	6	> 30000			
CC1(C(=O)N2CCC(C3CN([C@H]4CCCC[C@@H]4Oc4ccc5c(c4)CN(C4CCC(=O)NC4=O)C5=O)C3)CC2)CCC1 (stereo partly drawn) [Compound 25-A, 3-(5-(((1S,2S)-2-(3-(1-(1-methylcyclobutane-1-carbonyl)piperidin-4-yl)azetidin-1-yl)cyclohexyl)oxy)-1-oxoisoindolin-2-yl)piperidine-2,6-dione]	4	84.4	1	> 30000			
O=C1CCC(N2Cc3cc(OC4CCCCC4N4CC(C(=O)N5CCCCC5)C4)ccc3C2=O)C(=O)N1 (single isomer, unassigned) [Compound 22-A, 3-(1-oxo-5-((2-(3-(piperidine-1-carbonyl)azetidin-1-yl)cyclohexyl)oxy)isoindolin-2-yl)piperidine-2,6-dione]	31	75.9	11	> 30000			
CN(C)C(=O)C1CCN(c2ccc(CN3CCC(O)(c4ccc5c(c4)CN(C4CCC(=O)NC4=O)C5=O)CC3)cc2)CC1 (stereo not drawn) [Compound 41-A, 1-(4-((4-(2-(2,6-dioxopiperidin-3-yl)-1-oxoisoindolin-5-yl)-4-hydroxypiperidin-1-yl)methyl)phenyl)-N,N-dimethylpiperidine-4-carboxamide]	611	37.4	482	456			18.1

More lines, main results first:

EC50 [1] [nM]	inhibition at 1 µM [2] [%]	DC50 [3] [nM]	DC50 [4] [nM]	IKZF2 % Degradation @ 1 μM [2] [%]	IKZF3 % Degradation @ 1 μM ([4]; @ 1 μM) [%]	Compound	inhibition at 1 µM ([4]; HEK-293T, 24 h, @ 1 μM) [%]
26		6	63.3	95.4	39	O=C1CCC(N2Cc3cc(O[C@H]4CCCC[C@@H]4N4CC(c5ccc(C(F)(F)F)nc5)C4)ccc3C2=O)C(=O)N1 (single isomer, unassigned) [Compound 127-B]	
13	58.6	9	> 30000			O=C1CCC(N2Cc3cc(O[C@@H]4CCCC[C@@H]4N4CC(c5cc(Cl)ccn5)C4)ccc3C2=O)C(=O)N1 (mixture of isomers) [Compound 165-B, Rac-3-(5-(((cis)-2-(3-(4-chloropyridin-2-yl)azetidin-1-yl)cyclohexyl)oxy)-1-oxoisoindolin-2-yl)piperidine-2,6-dione]	
34		30	> 30000	61.4		O=C1CCC(N2Cc3cc(O[C@H]4CCCC[C@H]4N4CC(c5ccncc5)C4)ccc3C2=O)C(=O)N1 (single isomer, unassigned) [Compound 136-B]	
21		5	41.4	94.1	34.3	O=C1CCC(N2Cc3cc(O[C@H]4CCCC[C@@H]4N4CC(c5ccc(C(F)(F)F)cn5)C4)ccc3C2=O)C(=O)N1 (single isomer, unassigned) [Compound 131-B]	
21		25	> 30000	68.4		O=C1CCC(N2Cc3cc(O[C@H]4CCCC[C@@H]4N4CC(c5cncc(Cl)c5)C4)ccc3C2=O)C(=O)N1 (single isomer, unassigned) [Compound 117-B]	
7	76	4	> 30000			O=C1CCC(N2Cc3cc(O[C@H]4CCCC[C@@H]4N4CC(c5ncc(Cl)cn5)C4)ccc3C2=O)C(=O)N1 (single isomer, unassigned) [Compound 111-B]	
18	75.5	11	> 30000			O=C1CCC(N2Cc3cc(O[C@@H]4CCCC[C@@H]4N4CC(c5cncc(Cl)c5)C4)ccc3C2=O)C(=O)N1 (mixture of isomers) [Compound 155-B, Rac-3-(5-(((cis)-2-(3-(5-chloropyridin-3-yl)azetidin-1-yl)cyclohexyl)oxy)-1-oxoisoindolin-2-yl)piperidine-2,6-dione]	
64		21	> 30000	78		O=C1CCC(N2Cc3cc(O[C@H]4CCCC[C@@H]4N4CC(c5ncncc5Cl)C4)ccc3C2=O)C(=O)N1 (single isomer, unassigned) [Compound 93-B]	
